Data on one compound can be found in patent US20250195660A1, “INACTIVATING BACTERIA WITH ELECTRIC PULSES AND ANTIBIOTICS” (Purdue Research Foundation, priority 2018, published 2025).

Assay [1] concerns Stapphylococcus aureus (gram positive bacterium number 25923). As to the kind of experiment: Inactivation of S. aureus by 300 ns electric pulses combined with antibiotic (CFU plating). The assay is classed as cell-based, Staphylococcus aureus. On the procedure: Equipment. Used was a capacitor based Blumlein pulse generator with a spark gap switch to produce trapezoidal EPs of 300 ns duration at the peak with rise and fall times close to 50 ns. Multiple pulses were delivered at a frequency of 1 Hz.
The samples were treated in a standard electroporation cuvette (Dot Scientific) whose resistance must match the pulse generator's impedance to prevent pulse reflection. Utilizing Luria broth, containing 0.5% NaCl, in a cuvette with gap distances of 1 mm and 2 mm yielded the best electrical match (no reflections in the measured signal). Used were 2 mm cuvettes to ensure consistency between tests, and the applied voltage was measured across the cuvette using a LeCroy PPE 20 kV high voltage probe with a 1000:1 attenuation feeding into a TeleDyne LeCroy Waverunner 6 Zi Oscilloscope capable of measuring signals up to 4 GHz. Assuming a purely parallel plate geometry with minimal fringing gives an electric field E=V/d, where V is the peak voltage of the applied pulse and d is the gap distance.
Sample Preparation. These experiments assessed Stapphylococcus aureus (gram positive bacterium number 25923) from ATCC and Esherichia coli (gram negative bacterium number 25922) inoculated in luria broth (LB Broth Lennox, powder microbial growth medium. SIGMA-ALDRICH) by taking 8 mL of broth in a 50 mL sterile conical tube and incubating in a shaker for 20 h at 37° C. The sample was then diluted with fresh Luria broth until attaining an optical density of 0.25 for 100 μL on a photospectrometer (Molecular Devices) for a wavelength of 562 nm as measured in a 96-well plate. The optical density, which varies with growth or tube volume, was determined experimentally and set between 1×10^8 and 1.5×10^8 colony forming units (CFUs)/mL for the samples to be pulsed. These samples were then plated at dilutions between 10-6 and 100 (no dilution) depending on the effectiveness of the pulse treatments.
Electric Pulse Treatment Protocol. […] Although no consensus exists on a universal scaling law for applied EP “dose,” we fixed the energy density
[formula] • where N is the number of pulses and τ is the pulse duration. Fixing U for E=40, 30, and 20 kV/cm gave N=250, 445, and 1000 pulses, respectively. Cultures were plated as described below.
Cuvettes were filled with 365 μL of sample (sufficient to just cover the electrodes) and then 250 μL of molecular biology grade mineral oil was placed on top. Keeping the samples on ice upon achieving the required dilution further reduced experimental variability by slowing biological processes, such as fission This facilitated the assessment of the inactivation efficiency of EPs, drugs, and combined treatments.
Tests used the clinically relevant, bactericidal drug tobramycin, which targets the 30S and 50S ribosome complex and has a clinical dose from 4 to 5 μg/mL and rifampicin, which inhibits bacterial […]. Added were 0.2, 2, and 20 μg/mL of each drug to the initial bacterial dilutions prior to pulsing. Samples were immediately placed on ice to minimize cell division and reduce variability. These aliquots were also used to plate individual unpulsed controls for each drug concentration.
Plating. Plating was done on standard disposable tissue culture Petri dishes from VWR (15 cm diameter, 10 mm height) and covered with 10 mL of agar in luria broth (Agar, microbiology tested powder, SIGMA-ALDRICH), which was prepared by adding 20 g of LB lennox (SIGMA-ALDRICH) and 15 g/L of agar to water and then autoclaved.
Plated were samples at dilutions of 10^−6 and 10^−3 for low and high electric field treatments, respectively, and at 10^−6 and 10^−5 for controls All samples containing 100 μL of pulsed or diluted cultures were plated on LB agar plates and counted after overnight incubation at 37° C. […]

The subject of assay [2] is methicillin resistant Staphylococcus aureus (USA300-0114 strain). As to the kind of experiment: Inactivation of MRSA by 300 ns electric pulses and/or antibiotics (CFU plating). The assay is classed as cell-based. To be noted: 20 μg/mL + 30 kV/cm EPs. An excerpt: Except for rifampicin, the five other antibiotics in these examples primarily target gram-positive bacteria and are largely ineffective or not used against gram-negative bacteria in a clinical setting.
A Blumlein pulsed generator consisting of two lines comprised of twelve 2000 pF capacitors connected by inductors produced 300 ns EPs with rise-times of 30 ns and fall-times of 35 ns at a repetition frequency of 1 Hz (12). The EPs were applied to a standard 2 mm gap electroporation cuvette (Dot Scientific R) filled with a solution containing the microorganisms. Used was a Luria broth of 0.5% salinity (5 grams of NaCl/Liter) for the solution to electrically match the resistance of the sample with the impedance of the pulse generator (11Ω) to prevent signal reflection. The voltage measurements were taken using a LeCroy PPE 20 kV high voltage probe with a 1000:1 attenuation recorded by a TeleDyne LeCroy® Waverunner 6 Zi Oscilloscope with a bandwidth of 4 GHZ.
The gram-negative strains included a carbapenem-resistant Escherichia coli (ATCC® BA-2452TM, New Delhi metallo-beta-lactamase NDM-1 positive.), Klebsiella pneumoniae (ATCC® BAA-2146TM NDM-I positive), and a gentamicin, streptomycin and sulfonamide resistant Pseudomonas aeruginosa (BEI Resources NR-31040). Assessed was the gram-positive strain of methicillin resistant Staphylococcus aureus (USA300-0114 strain), which is also resistant to erythromycin and tetracycline. Samples were cultured in Luria broth (LB Broth Lennox, powder microbial growth medium, SIGMA-ALDRICH®) by taking 25 mL of broth in a 50 mL sterile conical tube and incubating in a shaker for 16 h at 37° C. Samples were diluted 50% by adding 25 mL media to the incubated sample as we plated controls for each experiment and condition. […]
Removed was 20 μL from each cuvette and added to 180 μL of PBS in a 96-well dish in triplicate. […] These plates were then cultured overnight in an incubator at 37° C., and counted the next day.

Take `CO[C@H]1/C=C/O[C@@]2(C)Oc3c(C)c(O)c4c(O)c(c(/C=N/N5CCN(C)CC5)c(O)c4c3C2=O)NC(=O)/C(C)=C\C=C\[C@H](C)[C@H](O)[C@@H](C)[C@@H](O)[C@@H](C)[C@H](OC(C)=O)[C@@H]1C` [rifampicin]: the “log-reduction of S. aureus” value in assay [1] (20 kV/cm EPs + 0.2 μg/mL), in assay [1] (20 kV/cm EPs + 2 μg/mL) and in assay [1] (20 kV/cm EPs + 20 μg/mL) was 1 log in each case. The “synergy (synergistic inactivation), MRSA” value in assay [2] was “approximately 1.5 log”.
